Measurements reported in patent US8569361B1, “Aliphatic amino acid biosynthesis inhibitors and a method of synthesizing the same” (priority 2012, dated 2013).
In brackets after ≈: the same amount, converted by molar mass.

Legend:
yeast cells [1] = assay: Reversal assay: amino acids/metabolites reversing the antifungal activity at MIC level; format: cell-based, Saccharomyces cerevisiae
Description: Performing reversal assay: The reversal assay according to the embodiments herein is performed by the following steps in general: First the yeast strain is grown in presence of minimum inhibitory concentrations of the compounds to be tested. Then different concentrations of amino acids or metabolite intermediates are added to reverse the inhibitory effect of the test compounds. Then again the growth is checked and the minimum concentration of the metabolite or amino acids required for reversing the inhibitory effect is determined.
An experiment was designed for finding the metabolite that reverses the antifungal activity of the test compound.
With respect to FIG. 3, a cell suspension containing 1.5×10^5 yeast/ml was prepared in RPMI medium (1.2×) enriched by 2% glucose. […] 80 μl of this suspension was added to each well of a 96 well micro plate in the second row. Subsequently, two fold dilutions of reversing metabolite were prepared in the first row of the same microplate and 20 μl of each dilution was added to the related well of the second row. The plate was incubated at 30° C. overnight. Following an overnight incubation, the plate was checked for any visible growth of the strain. In case of any growth, the reversing metabolite was considered for further analysis.
In this test, all the amino acids, nucleic acids and intermediate metabolites of citric acid cycle were tested separately.
For all the compounds the mixture of mediators was evaluated. After observing that the compound was reversed, each of the mediating materials was tested separately. Reversal assay test has been done for all of the amino acids like glycine, alanine, leucine, isoleucine and valine.
Row G indicates a compound B in the absence of amino acids and cells. Row H is control cell.

yeast cells [2] = assay: Minimum Inhibitory Concentration (MIC) by micro serial dilution in 96 well plate; format: cell-based; details: Saccharomyces cerevisiae, 48 hours incubation
Description: Two fold serial dilutions of the compounds to be tested according to the embodiments herein were prepared in 96 well plates. 40 μl of appropriate test compound dilution was added to 160 μl of culture medium and the plate was incubated at 30° C. The culture medium is Yeast Peptone Dextrose agar (YPD) containing 10^3 yeast cells. The growth of yeast cells was monitored for 24 hr and 48 hr. Fluorouracil was used as a positive control and Dimethyl sulfoxide (DMSO-control solvent) was used as negative control. The minimum concentration of the test compound A which inhibits the fungal growth was defined as MIC. MIC level is defined as the minimum concentration of the compound which prevents the growth of pathogen. […]
After providing a serial dilution in the second row, 20 μl of the wells of the second row was transformed to the wells of first row and final volume of the wells of first row was changed to 100 μl. Finally, a surrounding part of each plate was covered with parafilm and was incubated under 37 degree of centigrade. the results were read out After 24 hours and 48 hours. […]
As a result of the growth of the fungus the medium is becoming cloudy. […] For defining the MIC, as well as the sample, positive control i.e. an approved antifungal drug like fluorouracil were measured. A solution control and a negative control i.e. only the fungal suspension were measured. […]

ILV5 = assay: Semi-quantitative RT-PCR expression analysis of ilv5; format: cell-based, Saccharomyces cerevisiae BY4741; details: sub-lethal dose, 4 hours treatment; actin loading control
Description: (§1) A semi quantitative RT-PCR analysis was used to investigate any possible effect of new antifungal compounds on the expression level of candidate gene targets.
(§2) The RNA samples were prepared by using a commercial kit i.e. RNA easy mini kit, QIAGEN, Germany. A beads cell disrupter i.e. Micro Smash™, Tomy, Japan was used during the cell lysis process. All RNA preparation steps were performed according to the manufacturer's instructions.
(§3) 1 microgram of total RNA was used in cDNA synthesis reaction. A commercial kit i.e. first strand cDNA Synthesis Kit, Fermentas, USA was used for cDNA synthesis. Total cDNA was prepared using random hexamer primer and all steps were according to the manufacturer's instructions. A typical reaction was performed as table 1 below.
(§4) RT-PCR analysis was carried out to examine the effect of new antifungal compounds on the expression level of genes involved in aliphatic amino acids biosynthesis. Three genes, ilv2, ilv3 and ilv5 were chosen for further analysis. RNA samples were isolated from the yeast cells exposed to sub-lethal or sub-inhibitory concentrations of new antifungal compounds and following a cDNA preparation. RT-PCR was performed using the gene specific primers.
(§5) RT-PCR products were visualized by electrophoresis on agarose gel and staining by ethidium bromide.
(§6) An overnight culture of yeast Saccharomyces cerevisiae BY4741 was prepared. […]

ILV2 = assay: Semi-quantitative RT-PCR expression analysis of ilv2; format: cell-based, Saccharomyces cerevisiae BY4741; details: sub-lethal dose, 4 hours treatment; actin loading control
Description: as §1, §2, §3, §4, §5, §6

ILV3 = assay: Semi-quantitative RT-PCR expression analysis of ilv3; format: cell-based, Saccharomyces cerevisiae BY4741; details: sub-lethal dose, 4 hours treatment; actin loading control
Description: as §1, §2, §3, §4, §5, §6

SMILES | reversal property of the antifungal activity (yeast cells [1]) | MIC (yeast cells [2]) [µg/mL] | Minimum Reversal Concentration (MRC), isoleucine (yeast cells [1]; isoleucine added 0-200 μg/ml, compound at constant MIC level) [µg/mL] | Minimum Reversal Concentration (MRC), leucine (yeast cells [1]; leucine added 0-200 μg/ml, compound at constant MIC level) [µg/mL] | Minimum Reversal Concentration (MRC), valine (yeast cells [1]; valine added 0-200 μg/ml, compound at constant MIC level) [µg/mL] | Expression level of ilv5, treated vs untreated cells (ILV5) | Expression level of ilv2, treated vs untreated cells (ILV2) | Expression level of ilv3, treated vs untreated cells (ILV3)
C#CC(=O)Oc1ccc2ccc(=O)oc2c1 [compound A, 2-oxo-2H-chromen-7-yl propiolate] | lacks the reversal property | – | – | – | – | – | – | –
CCOC(=O)C#C/C=C/C(=O)OCC [compound B, diethyl-hex-2-en-4-yne-dioate] | – | 1.5 (≈ 7.65 µM) | 25 | 12.5 | 12.5 | higher than that in the untreated cells | unchanged | unchanged
